Results taken from patent US20120132797A1, “MEANS AND METHODS FOR DIAGNOSING THYROID DISORDERS” (BASF SE, priority 2009, published 2012).

System: Wistar (Crl:WI(Han)) rats
Assay: Mass spectrometry-based plasma metabolite profiling of rats treated with known inducers of thyroid function impairment
Assay type: in vivo, rat
Settings: ratio of group medians vs controls
Text: At the beginning of the study the animals were 10-11 weeks old. Each dose group in the studies consisted of five rats per sex, and was compared with controls (10 rats per sex). […] The dose levels were chosen to show the typical overt (high dose) and slight (low dose) toxicological symptoms of the substances as described in the literature or in BASF internal study reports.
Blood samples were withdrawn from the retro-orbital sinus in all rats under isoflurane anesthesia on study days 7, 14 and 28 after a fasting period of 16-20 hours.
For mass spectrometry-based metabolite profiling analysis, plasma samples were extracted by a proprietary method which delivers a polar and a non-polar fraction. For GC-MS analysis, the non-polar fraction was treated with methanol under acidic conditions to yield the fatty acid methyl esters. Both fractions were further derivatised with Omethyl-hydroxyamine hydrochloride and pyridine to convert oxo groups to Omethyloximes and subsequently with a silylating agent before analysis.
In LC-MS/MS analysis, both fractions were reconstituted in appropriate solvent mixtures. HPLC was performed by gradient elution on reversed phase separation columns. For mass spectrometric detection metanomics proprietary technology was applied, which allows target and high sensitivity MRM (Multiple Reaction Monitoring) profiling in parallel to a full screen analysis. […] Moreover, several hundred additional analytes giving a fingerprint of the sample were included in the methods.
Following comprehensive analytical validation steps, the data for each analyte were normalized against data from pool samples. These samples were run in parallel through the whole process to account for process variability.
The sex- and day-stratified heteroscedastic t-test (“Welch test”) was applied to compare treated groups with respective controls. p-Values and ratios of corresponding group medians were collected as metabolic profiles and fed into a database.

[1] = female rats, fh7 (study day 7), Table 1
[2] = female rats, fh14 (study day 14), Table 1
[3] = female rats, fh28 (study day 28), Table 1
[4] = male rats, mh7 (study day 7), Table 2
[5] = male rats, mh7 (study day 7), Table 4

SMILES: Cn1cc[nH]c1=S [Methimazole]
- 5-O-Methylsphingosine [1]: 3.55
- Asparagine [1]: 1.17
- Behenic acid (C22:0) [1]: 2.08
- Citrate [1]: 0.83
- Docosahexaenoic acid (C22:cis[4,7,10,13,16]6) [1]: 2.16
- Glycine [1]: 1.14
- Ketoleucine [1]: 0.86
- Lysophosphatidylcholine (C18:2) [1]: 1.52
- Phosphatidylcholine (C16:1, C18:2) [1]: 1.89
- Phosphatidylcholine (C18:2, C20:4) [1]: 1.39
- Pyruvate [1]: 0.62
- Tricosanoic acid (C23:0) [1]: 2.05
- erythro-Sphingosine [1]: 2.56
- threo-Sphingosine [1]: 2.46
- Sphingomyelin (d18:1, C16:0) (female rats, fh7 (study day 7), Table 1, first listing): 1.89
- Sphingomyelin (d18:1, C16:0) (female rats, fh7 (study day 7), Table 1, second listing): 1.45
- 5-O-Methylsphingosine [2]: 3.80
- Asparagine [2]: 1.12
- Behenic acid (C22:0) [2]: 2.63
- Citrate [2]: 0.76
- Docosahexaenoic acid (C22:cis[4,7,10,13,16]6) [2]: 1.32
- Glycine [2]: 1.14
- Ketoleucine [2]: 0.80
- Lysophosphatidylcholine (C18:2) [2]: 1.57
- Phosphatidylcholine (C16:1, C18:2) [2]: 2.40
- Phosphatidylcholine (C18:2, C20:4) [2]: 1.25
- Pyruvate [2]: 0.53
- Tricosanoic acid (C23:0) [2]: 2.54
- erythro-Sphingosine [2]: 3.21
- threo-Sphingosine [2]: 3.21
- Sphingomyelin (d18:1, C16:0) (female rats, fh14 (study day 14), Table 1, first listing): 2.54
- Sphingomyelin (d18:1, C16:0) (female rats, fh14 (study day 14), Table 1, second listing): 1.44
- 5-O-Methylsphingosine [3]: 2.83
- Asparagine [3]: 1.12
- Behenic acid (C22:0) [3]: 2.03
- Citrate [3]: 0.84
- Docosahexaenoic acid (C22:cis[4,7,10,13,16]6) [3]: 1.22
- Glycine [3]: 1.28
- Ketoleucine [3]: 0.78
- Lysophosphatidylcholine (C18:2) [3]: 1.31
- Phosphatidylcholine (C16:1, C18:2) [3]: 2.21
- Phosphatidylcholine (C18:2, C20:4) [3]: 1.33
- Pyruvate [3]: 0.79
- Tricosanoic acid (C23:0) [3]: 1.96
- erythro-Sphingosine [3]: 2.44
- threo-Sphingosine [3]: 2.37
- Sphingomyelin (d18:1, C16:0) (female rats, fh28 (study day 28), Table 1, first listing): 1.77
- Sphingomyelin (d18:1, C16:0) (female rats, fh28 (study day 28), Table 1, second listing): 1.31
- 3-O-Methylsphingosine [4]: 3.47
- 5-O-Methylsphingosine [4]: 3.57
- 14-Methyl-Pentadecanoic acid [4]: 1.13
- 17-Methyloctadecanoic acid [4]: 1.36
- Arginine [4]: 1.09
- Cholesterol [4]: 1.98
- Citrate [4]: 0.69
- Dihom-gamma-Linolenic acid (C20:cis[8,11,14]3) [4]: 2.38
- Lignoceric acid (C24:0) [4]: 2.12
- Phytosphingosine [4]: 2.08
- Sphingomyelin (d18:1, C16:0) [4]: 2.24
- Tricosanoic acid (C23:0) [4]: 1.93
- alpha-Tocopherol [4]: 1.76
- erythro-Sphingosine [4]: 2.92
- threo-Sphingosine [4]: 3.02
- Glutamate (male rats, mh7 (study day 7), Table 2, first listing): 0.61
- Glutamate (male rats, mh7 (study day 7), Table 2, second listing): 0.75
- Behenic acid (C22:0) [5]: 2.02
- Cholesterol [5]: 1.69
- Citrate [5]: 0.69
- Cytosine [5]: 0.65
- Galactose, lipid fraction [5]: 1.60
- Glycerol phosphate [5]: 2.09
- Glycine [5]: 1.42
- Lignoceric acid (C24:0) [5]: 2.12
- Mannose [5]: 1.06
- Nervonic acid C24:(cis[15]1) [5]: 2.59
- Phospha-tidylcholine (C18:0, 18:2) [5]: 1.11
